Results: patent publication US8859628B2, “Method for preventing, treating and diagnosing disorders of protein aggregation” (priority 2003, dated 2014)

Legend:
[1] = tested on: AD patients; details: human, in vivo; cited from earlier work
[2] = tested on: TgCRND8 mice; test: Cerebral Aβ content (Aβ40 and Aβ42 kits on hemi-brain homogenates); assay type: in vivo, mouse; design: Total Aβ: unit not given here
Experimental: (§1) Plasma and Cerebral Aβ Content—Hemi-brain samples were homogenized in a buffered sucrose solution, followed by either 0.4% diethylamine/100 mM NaCl for soluble Aβ levels or cold formic acid for the isolation of total Aβ. After neutralization the samples were diluted and analyzed for Aβ40 and Aβ42 using commercially available kits (BIOSOURCE International). Each hemisphere was analyzed in triplicate with the mean±SEM reported. Western blot analyses were performed on all fractions using urea gels for Aβ species analyses. Aβ was detected using 6E10 (BIOSOURCE International) and Enhanced Chemiluminenscence (Amersham).
as §1, with “reported.” for “reported. Western blot analyses were performed on all fractions using urea gels for Aβ species analyses. Aβ was detected using 6E10 (BIOSOURCE International) and Enhanced Chemiluminenscence (Amersham).”

[3] = biological target: T1, Aβ42 (Homo sapiens, UniProt P05067); details: cited from earlier work
T1 construct: The importance of residues 1-42 (Aβ42) in Alzheimer's disease was highlighted

[4] = tested on: TgCRND8 mice; test: Cerebral amyloid plaque burden (anti-Aβ immunostaining, image analysis); assay type: in vivo, mouse
Experimental: (§2) Cerebral amyloid burden—Brains were removed and one hemisphere was fixed in 4% paraformaldehyde and embedded in paraffin wax in the mid saggital plane. To generate sets of systematic uniform random sections, 5 μm serial sections were collected across the entire hemisphere. Sets of sections at […] intervals were used for analyses (10-14 sections/set). Plaque were identified after antigen retrieval with formic acid, and incubated with primary anti-Aβ antibody (Dako M-0872), followed by secondary antibody (Dako StreptABCcomplex/horseradish kit). End products were visualized with DAB counter-stained with hematoxylin. Amyloid plaque burden was assessed using Leco IA-3001 image analysis software interfaced with Leica microscope and Hitachi KP-M1U CCD video camera. Vascular burden was analyzed similarly and a dissector was used to measure the diameter of affected vessels.
as §2, with “camera.” for “camera. Vascular burden was analyzed similarly and a dissector was used to measure the diameter of affected vessels.”

[5] = tested on: TgCRND8 mice; test: Survival census (Kaplan-Meier); assay type: in vivo, mouse; details: vs untreated TgCRND8
Experimental: Survival Census—The probability of survival was assessed by the Kaplan-Meier technique, computing the probability of survival at every occurrence of death, thus making it suitable for small sample sizes. For the analyses of survival, 35 mice were used for each treatment group. The comparison between treatments was reported using the Tarone-Ware test.

[6] = tested on: TgCRND8 mice; test: Plasma Aβ levels; assay type: in vivo, mouse
Experimental: as §1
as §1, with “reported.” for “reported. Western blot analyses were performed on all fractions using urea gels for Aβ species analyses. Aβ was detected using 6E10 (BIOSOURCE International) and Enhanced Chemiluminenscence (Amersham).”

[7] = tested on: TgCRND8 mice; test: Morris Water Maze, spatial reference memory version, three-day trial paradigm (treatment/reversal study); assay type: in vivo, mouse; details: 1 month treatment from 5 months of age, three-day paradigm
Experimental: A cohort entered the study at 5 months of age and outcomes were analyzed at 6-months of age. The body weight, coat characteristics and in cage behavior was monitored. All experiments were performed according to the Canadian Council on Animal Care guidelines.
Behavioral Test—Reversal Study—Mice entered the Morris water maze test with a hidden platform on day one without pretraining. Mice were tested for 3 days with six trials per day. On the fourth day, the platform was removed from the pool and each mouse received one 30-s swim probe trial. On the last day the animals underwent a cue test in order to evaluate swimming ability, eye sight and general cognition. The cue test is composed at the platform being placed in a different quadrant than that used for testing and is tagged with a flag. Animals are allowed 60 s to find the platform. […] Behavioural data was analysed using a mixed model of factorial analysis of variance (ANOVA) with drug or genotype and training sessions as repeated measure factors.
The cognitive function of TgCRND8 mice was assessed using the spatial reference memory version of the Morris Water Maze using a three day trial paradigm (FIGS. 4-8).
Behavioural data was analysed using a mixed model of factorial analysis of variance (ANOVA) with drug and genotype as between subject variables and training sessions as within subject variable.
In these experiments, the dosage and oral administration of compounds, and the behavioral and neurochemical assays were the same as those employed in the above treatment experiments.

[8] = tested on: TgCRND8 mice; test: Morris Water Maze, spatial reference memory version, five-day trial paradigm (prevention study); assay type: in vivo, mouse; details: 6 months of age
Experimental: Age and sex-matched cohorts of TgCRND8 mice and non-transgenic littermates (n=35 in each cohort) were either untreated, or were given a compound of the present invention as indicated below at 30 mg/day/mouse beginning at age of about 6 weeks. The mice were followed for outcome measures cognitive function, brain Aβ levels, brain pathology, and survival at 4 months and 6 months of age.
Two cohorts entered the study at 6 weeks of age and outcomes were analyzed at 4- and 6-months of age. The body weight, coat characteristics and in cage behavior was monitored. All experiments were performed according to the Canadian Council on Animal Care guidelines.
Behavioral tests—After non-spatial pre-training, mice underwent place discrimination training for 5 days with 4 trials per day. Behavioral data was analyzed using a mixed model of factorial analysis of variance (ANOVA) with drug or genotype and training sessions as repeated measure factors.
The cognitive function of TgCRND8 mice was assessed using the spatial reference memory version of the Morris Water Maze using a five-day trial paradigm (FIGS. 1C-1H). […] The improved performance was also not due to nutritional or caloric effects because body weight, activity, and coat condition were not different between treated and untreated cohorts. […] Gender effects were not significant between any treatment group (p=0.85).

[9] = 1 month treatment from 5 months of age
[10] = 1 month treatment, 30 mg/mouse/day from 5 months, analyzed at 6 months of age
[11] = 4 month prevention, 30 mg/mouse/day from 6 weeks of age
[12] = 6 month prevention, 30 mg/mouse/day from 6 weeks of age

T1 sequence (P05067 672-713 limits assumed): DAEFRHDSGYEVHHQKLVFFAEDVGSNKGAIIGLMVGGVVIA

O[C@H]1[C@H](O)[C@@H](O)[C@H](O)[C@@H](O)[C@H]1O [inositol]
CAMCOG subscales orientation and language [1]: did show significant improvement

O[C@H]1[C@H](O)[C@@H](O)[C@H](O)[C@@H](O)[C@H]1O [Myo-Inositol, myo-inositol, reference compound]
Aβ load vs untreated [2, 9]: did not affect the plaque burden or Aβ load
Total Aβ [2, 10]: 20490 ± 526
Total Aβ [2, 11]: 4969 ± 434
Total Aβ [2, 12]: 17489 ± 354
stabilization of Aβ42 micelle [3]: stabilizes a small micelle of Aβ42
plaque burden vs untreated [4, 9]: did not affect the plaque burden or Aβ load
Plaque Area [4, 10]: 469968 ± 35664 μm^2
Plaque Count [4, 10]: 1324 ± 69
Total Plaque Area/Total Brain Area [4, 10]: 0.153 ± 0.088%
Plaque Area [4, 11]: 91902 ± 7453 μm^2
Plaque Count [4, 11]: 649 ± 50
Total Plaque Area/Total Brain Area [4, 11]: 0.023 ± 0.004%
Plaque Area [4, 12]: 400013 ± 19638 μm^2
Plaque Count [4, 12]: 927 ± 78
Total Plaque Area/Total Brain Area [4, 12]: 0.100 ± 0.005%
effect on survival of TgCRND8 mice [5]: did not affect overall survival significantly
Plasma Aβ Levels ([6]; 1 month treatment): 2110 ± 174 pg/mL
effect on plasma Aβ levels in comparison to untreated (words) [6, 9]: Neither myo-inositol, epi-inositol nor scyllo-inositol treatment had any effect on plasma Aβ levels
Plasma Aβ Levels ([6]; 4 month prevention): 942 ± 30 pg/mL
Plasma Aβ Levels ([6]; 6 month prevention): 969 ± 67 pg/mL
cognitive function, treated TgCRND8 mice vs non-Tg littermates (words) [7]: significantly different from treated non-Tg littermates
cognitive function, treated vs untreated TgCRND8 mice (words) [8]: did not alter cognitive function
